# Measurements published in ChEMBL document CHEMBL1909046, “DrugMatrix in vitro pharmacology data”.
# Key:
# D(1A) dopamine receptor = D(1A) dopamine receptor (Homo sapiens, UniProt P21728); test: DRUGMATRIX: Dopamine D1 radioligand binding (ligand: [3H] SCH-23390); format: cell membranes, CHO, Membrane; settings: cho; Not Active = under 50% inhibition at 10 µM
# [1] = DRUGMATRIX: Tumor Necrosis Factor (TNF), Non-Selective radioligand binding (ligand: [125I] TNF-alpha); format: cell membranes, Membrane; settings: u-937; Not Active = under 50% inhibition at 10 µM
# Glycine receptor = Glycine receptor (Rattus norvegicus, UniProt P22771+P24524+P07727+P20781); format: cell membranes, Wistar, Spinal cord, Membrane; also: in other assays of this panel Not Active means under 50% inhibition at 10 µM
# Caspase-1 = target: T1, Caspase-1 (Homo sapiens, UniProt P29466); parameters: species or system Escherichia coli;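 also: Caspase-1 enzyme inhibition assay with a peptide substrate; in other assays of this panel Not Active means under 50% inhibition at 10 µM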
# T1 sequence (P29466 whole entry): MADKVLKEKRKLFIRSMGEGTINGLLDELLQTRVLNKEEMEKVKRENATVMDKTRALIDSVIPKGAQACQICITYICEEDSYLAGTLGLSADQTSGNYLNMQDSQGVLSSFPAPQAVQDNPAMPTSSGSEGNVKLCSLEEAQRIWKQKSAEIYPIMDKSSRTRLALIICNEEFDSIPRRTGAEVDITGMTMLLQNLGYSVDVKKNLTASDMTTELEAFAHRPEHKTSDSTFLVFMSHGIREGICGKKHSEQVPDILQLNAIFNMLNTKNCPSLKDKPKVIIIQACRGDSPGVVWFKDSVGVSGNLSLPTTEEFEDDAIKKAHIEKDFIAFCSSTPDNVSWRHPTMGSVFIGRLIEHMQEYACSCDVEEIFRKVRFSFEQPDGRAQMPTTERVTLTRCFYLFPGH
# [2] = DRUGMATRIX: Calcium Channel Type L, Phenylalkylamine radioligand binding (ligand: [3H] (-)-Desmethoxyverapamil (D-888)); format: cell membranes, Rattus norvegicus, Wistar, Brain, Membrane; settings: Not Active = under 50% inhibition at 10 µM
# Adenosine receptor A2a = Adenosine receptor A2a (Homo sapiens, UniProt P29274); test: DRUGMATRIX: Adenosine A2A radioligand binding (ligand: […]); format: cell membranes, HEK293, Membrane; settings: hek293; Not Active = under 50% inhibition at 10 µM
# Sequence of Adenosine receptor A2a (P29274 whole entry): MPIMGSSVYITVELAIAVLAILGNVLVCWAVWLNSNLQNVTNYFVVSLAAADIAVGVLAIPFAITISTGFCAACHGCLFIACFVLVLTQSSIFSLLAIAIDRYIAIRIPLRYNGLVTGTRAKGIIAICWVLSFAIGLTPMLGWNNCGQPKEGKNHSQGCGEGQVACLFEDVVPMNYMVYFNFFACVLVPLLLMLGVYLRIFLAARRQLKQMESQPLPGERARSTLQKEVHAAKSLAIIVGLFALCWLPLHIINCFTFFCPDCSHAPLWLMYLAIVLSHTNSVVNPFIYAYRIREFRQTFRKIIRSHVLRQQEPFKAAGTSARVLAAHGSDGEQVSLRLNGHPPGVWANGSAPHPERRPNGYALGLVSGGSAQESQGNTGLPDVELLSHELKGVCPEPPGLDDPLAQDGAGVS
# Substance-P receptor = Substance-P receptor (Homo sapiens, UniProt P25103); format: cell membranes, CHO, Membrane; settings: cho; also: in other assays of this panel Not Active means under 50% inhibition at 10 µM
# Sequence of Substance-P receptor (P25103 whole entry): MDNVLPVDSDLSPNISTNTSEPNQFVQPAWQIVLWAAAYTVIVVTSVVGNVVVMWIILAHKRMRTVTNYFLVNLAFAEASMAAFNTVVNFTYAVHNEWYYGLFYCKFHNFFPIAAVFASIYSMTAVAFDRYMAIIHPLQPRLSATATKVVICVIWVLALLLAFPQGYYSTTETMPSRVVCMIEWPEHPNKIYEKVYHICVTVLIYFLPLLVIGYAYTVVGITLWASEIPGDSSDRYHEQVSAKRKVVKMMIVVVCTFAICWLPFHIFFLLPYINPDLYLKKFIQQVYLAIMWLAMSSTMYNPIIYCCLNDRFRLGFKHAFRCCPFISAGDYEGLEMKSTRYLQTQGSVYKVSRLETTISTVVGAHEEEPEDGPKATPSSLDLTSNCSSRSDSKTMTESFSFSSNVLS
# [3] = DRUGMATRIX: Glutamate, Kainate radioligand binding (ligand: [3H] Kainic acid); format: cell membranes, Rattus norvegicus, Wistar, Brain, Membrane; settings: Not Active = under 50% inhibition at 10 µM
# [4] = target: Platelet-activating factor receptor (Homo sapiens, UniProt P25105); test: biochemical; format: tissue-based; settings: platelet; also: in other assays of this panel Not Active means under 50% inhibition at 10 µM
# Sequence of Platelet-activating factor receptor (P25105 whole entry): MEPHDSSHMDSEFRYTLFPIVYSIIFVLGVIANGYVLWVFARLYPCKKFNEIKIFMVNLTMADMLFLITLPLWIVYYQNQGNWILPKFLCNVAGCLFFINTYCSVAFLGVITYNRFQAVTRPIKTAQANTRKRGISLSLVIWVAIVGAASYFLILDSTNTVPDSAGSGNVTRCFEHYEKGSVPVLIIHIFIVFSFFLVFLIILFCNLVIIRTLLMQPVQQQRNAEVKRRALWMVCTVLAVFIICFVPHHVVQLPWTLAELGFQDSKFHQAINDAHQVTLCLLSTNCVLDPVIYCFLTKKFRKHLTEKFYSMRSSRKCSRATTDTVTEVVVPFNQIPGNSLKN
# [5] = target: 5-hydroxytryptamine receptor 2B (Homo sapiens, UniProt P41595); format: cell membranes, CHO-K1, Membrane; settings: cho-k1; also: in other assays of this panel Not Active means under 50% inhibition at 10 µM
# Sequence of 5-hydroxytryptamine receptor 2B (P41595 whole entry): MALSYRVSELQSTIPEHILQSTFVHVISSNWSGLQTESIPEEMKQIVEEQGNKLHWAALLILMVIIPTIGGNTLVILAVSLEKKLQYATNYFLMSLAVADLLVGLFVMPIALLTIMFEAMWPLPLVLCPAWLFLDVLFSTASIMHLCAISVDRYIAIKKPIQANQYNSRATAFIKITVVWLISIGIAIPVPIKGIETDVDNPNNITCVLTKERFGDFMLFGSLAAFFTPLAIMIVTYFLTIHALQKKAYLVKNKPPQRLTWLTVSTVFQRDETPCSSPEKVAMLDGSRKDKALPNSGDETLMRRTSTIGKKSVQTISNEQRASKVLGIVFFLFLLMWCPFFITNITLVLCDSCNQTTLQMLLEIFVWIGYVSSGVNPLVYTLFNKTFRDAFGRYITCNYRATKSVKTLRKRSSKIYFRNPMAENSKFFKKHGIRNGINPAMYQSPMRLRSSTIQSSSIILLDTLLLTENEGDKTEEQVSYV
# [6] = target: T2, C-C chemokine receptor type 4 (Homo sapiens, UniProt P51679); format: cell membranes, Membrane; settings: chem-1; also: in other assays of this panel Not Active means under 50% inhibition at 10 µM
# T2 sequence (P51679 whole entry): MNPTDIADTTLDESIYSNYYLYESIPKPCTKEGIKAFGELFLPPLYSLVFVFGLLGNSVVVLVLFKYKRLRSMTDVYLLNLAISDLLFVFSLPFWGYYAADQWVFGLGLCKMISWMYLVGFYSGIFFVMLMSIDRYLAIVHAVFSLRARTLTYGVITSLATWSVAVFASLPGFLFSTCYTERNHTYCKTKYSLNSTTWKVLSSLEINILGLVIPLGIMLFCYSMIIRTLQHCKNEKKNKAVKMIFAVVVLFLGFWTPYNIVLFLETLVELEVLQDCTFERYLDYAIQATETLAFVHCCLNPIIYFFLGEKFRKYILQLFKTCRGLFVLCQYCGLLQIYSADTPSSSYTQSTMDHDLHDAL
# [7] = target: T3, Neuropeptide Y receptor type 2 (Homo sapiens, UniProt P49146); format: cell membranes, Membrane; settings: kan-ts; also: in other assays of this panel Not Active means under 50% inhibition at 10 µM
# T3 sequence (P49146 whole entry): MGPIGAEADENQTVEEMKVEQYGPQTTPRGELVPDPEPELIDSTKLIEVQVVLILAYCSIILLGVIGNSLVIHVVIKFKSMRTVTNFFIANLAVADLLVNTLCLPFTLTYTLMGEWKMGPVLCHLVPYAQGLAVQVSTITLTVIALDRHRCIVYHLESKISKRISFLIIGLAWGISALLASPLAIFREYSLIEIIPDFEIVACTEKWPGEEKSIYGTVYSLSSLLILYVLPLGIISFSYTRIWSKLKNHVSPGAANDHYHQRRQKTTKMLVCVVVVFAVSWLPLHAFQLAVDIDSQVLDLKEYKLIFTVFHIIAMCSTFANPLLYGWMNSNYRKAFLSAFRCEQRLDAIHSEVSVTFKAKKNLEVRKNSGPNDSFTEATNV
# Adenosine receptor A3 = target: T4, Adenosine receptor A3 (Homo sapiens, UniProt P0DMS8); format: cell membranes, CHO-K1, Membrane
# T4 sequence (P0DMS8 whole entry): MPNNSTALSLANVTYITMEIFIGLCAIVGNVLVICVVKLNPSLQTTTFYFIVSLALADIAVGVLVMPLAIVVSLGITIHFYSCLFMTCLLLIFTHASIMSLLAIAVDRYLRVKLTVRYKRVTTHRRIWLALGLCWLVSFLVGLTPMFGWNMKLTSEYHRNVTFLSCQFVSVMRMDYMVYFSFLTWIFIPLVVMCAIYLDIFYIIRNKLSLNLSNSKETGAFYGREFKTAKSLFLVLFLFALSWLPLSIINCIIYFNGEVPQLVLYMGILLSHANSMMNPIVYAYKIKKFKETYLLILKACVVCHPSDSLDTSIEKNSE
# [8] = target: Mitogen-activated protein kinase 14 (Homo sapiens, UniProt Q16539); parameters: species or system Escherichia coli
# Sequence of Mitogen-activated protein kinase 14 (Q16539 whole entry): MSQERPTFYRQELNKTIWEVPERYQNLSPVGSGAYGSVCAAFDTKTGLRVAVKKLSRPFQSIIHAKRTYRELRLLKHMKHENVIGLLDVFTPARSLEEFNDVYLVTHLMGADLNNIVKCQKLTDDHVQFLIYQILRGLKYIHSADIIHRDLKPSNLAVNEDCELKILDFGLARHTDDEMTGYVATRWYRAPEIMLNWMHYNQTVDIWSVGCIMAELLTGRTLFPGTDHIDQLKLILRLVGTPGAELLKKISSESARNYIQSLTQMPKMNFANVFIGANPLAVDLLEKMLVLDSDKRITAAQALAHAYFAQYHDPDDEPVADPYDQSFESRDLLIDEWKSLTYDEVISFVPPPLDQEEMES
# Thromboxane-A synthase = target: T5, Thromboxane-A synthase (Homo sapiens, UniProt P24557); test: biochemical; format: tissue-based, Platelet; settings: platelet
# T5 sequence (P24557 whole entry): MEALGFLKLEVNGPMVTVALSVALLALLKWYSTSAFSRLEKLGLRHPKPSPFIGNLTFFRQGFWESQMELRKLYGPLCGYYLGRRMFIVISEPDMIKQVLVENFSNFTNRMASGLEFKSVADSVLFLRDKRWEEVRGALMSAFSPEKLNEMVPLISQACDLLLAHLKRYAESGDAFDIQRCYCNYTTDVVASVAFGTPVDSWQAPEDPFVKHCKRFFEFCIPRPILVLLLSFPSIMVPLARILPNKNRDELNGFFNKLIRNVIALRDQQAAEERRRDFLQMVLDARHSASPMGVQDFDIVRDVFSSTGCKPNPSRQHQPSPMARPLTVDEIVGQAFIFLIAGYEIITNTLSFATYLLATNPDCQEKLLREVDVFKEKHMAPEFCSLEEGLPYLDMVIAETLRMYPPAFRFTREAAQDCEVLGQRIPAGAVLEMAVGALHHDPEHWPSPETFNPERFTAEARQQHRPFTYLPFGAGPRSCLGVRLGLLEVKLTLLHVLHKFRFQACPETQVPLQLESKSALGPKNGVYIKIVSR
# Sequence of D(1A) dopamine receptor (P21728 whole entry): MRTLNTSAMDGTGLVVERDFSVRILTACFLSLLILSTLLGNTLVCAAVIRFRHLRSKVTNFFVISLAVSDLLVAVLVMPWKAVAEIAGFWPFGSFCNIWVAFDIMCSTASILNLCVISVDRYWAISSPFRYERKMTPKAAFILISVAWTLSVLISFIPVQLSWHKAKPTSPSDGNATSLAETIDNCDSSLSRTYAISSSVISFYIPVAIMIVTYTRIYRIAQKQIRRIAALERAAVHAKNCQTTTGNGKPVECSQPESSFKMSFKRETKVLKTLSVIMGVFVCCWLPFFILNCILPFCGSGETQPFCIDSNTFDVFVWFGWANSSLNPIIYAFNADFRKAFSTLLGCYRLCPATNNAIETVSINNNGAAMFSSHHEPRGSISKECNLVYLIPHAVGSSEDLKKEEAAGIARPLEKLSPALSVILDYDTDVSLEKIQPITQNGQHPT
SMILES,IC50 (D(1A) dopamine receptor),IC50 [1],Ki [1],IC50 (Glycine receptor),IC50 (Caspase-1),IC50 [2],Ki [2],IC50 (Adenosine receptor A2a),IC50 (Substance-P receptor),IC50 [3],Ki [3],IC50 [4],IC50 [5],IC50 [6],IC50 [7],IC50 (Adenosine receptor A3; cho-k1),IC50 [8],IC50 (Thromboxane-A synthase),IC50 (Adenosine receptor A3; read-out: IC50) [µM],Ki (Adenosine receptor A3; read-out: Ki) [µM]
Cc1ncc([N+](=O)[O-])n1CC(C)O (stereo not given) [SECNIDAZOLE],Not Active,Not Active,Not Active,Not Active,Not Active,Not Active,Not Active,Not Active,Not Active,Not Active,Not Active,Not Active,Not Active,Not Active,Not Active,Not Active,Not Active,Not Active,–,–
CN[C@@H]1[C@@H](O)[C@@H](O[C@@H]2[C@@H](O)[C@H](O[C@H]3OC(CN)=CC[C@H]3N)[C@@H](N)C[C@H]2N)OC[C@]1(C)O [SISOMICIN],Not Active,Not Active,Not Active,Not Active,Not Active,Not Active,Not Active,Not Active,Not Active,Not Active,Not Active,Not Active,Not Active,Not Active,Not Active,Not Active,Not Active,Not Active,–,–
CC(=O)S[C@@H]1CC2=CC(=O)CC[C@]2(C)[C@H]2CC[C@@]3(C)[C@@H](CC[C@@]34CCC(=O)O4)[C@H]12 [SPIRONOLACTONE],Not Active,Not Active,Not Active,Not Active,Not Active,Not Active,Not Active,Not Active,Not Active,Not Active,Not Active,Not Active,Not Active,Not Active,Not Active,Not Active,Not Active,Not Active,–,–
C[C@]12Cc3c[nH]nc3C[C@@H]1CC[C@@H]1[C@@H]2CC[C@@]2(C)[C@H]1CC[C@]2(C)O [STANOZOLOL],Not Active,Not Active,Not Active,Not Active,Not Active,Not Active,Not Active,Not Active,Not Active,Not Active,Not Active,Not Active,Not Active,Not Active,Not Active,–,Not Active,Not Active,8.33,4.71
CN(N=O)C(=O)N[C@@H](C=O)[C@@H](O)[C@H](O)[C@H](O)CO [STREPTOZOCIN],Not Active,Not Active,Not Active,Not Active,Not Active,Not Active,Not Active,Not Active,Not Active,Not Active,Not Active,Not Active,Not Active,Not Active,Not Active,Not Active,Not Active,Not Active,–,–
Cc1cc(NS(=O)(=O)c2ccc(N)cc2)no1 [SULFAMETHOXAZOLE],Not Active,Not Active,Not Active,Not Active,Not Active,Not Active,Not Active,Not Active,Not Active,Not Active,Not Active,Not Active,Not Active,Not Active,Not Active,Not Active,Not Active,Not Active,–,–
Nc1ccc(S(N)(=O)=O)cc1 [SULFANILAMIDE],Not Active,Not Active,Not Active,Not Active,Not Active,Not Active,Not Active,Not Active,Not Active,Not Active,Not Active,Not Active,Not Active,Not Active,Not Active,Not Active,Not Active,Not Active,–,–
Nc1ccc(S(=O)(=O)Nc2ccnn2-c2ccccc2)cc1 [SULFAPHENAZOLE],Not Active,Not Active,Not Active,Not Active,Not Active,Not Active,Not Active,Not Active,Not Active,Not Active,Not Active,Not Active,Not Active,Not Active,Not Active,Not Active,Not Active,Not Active,–,–
